What was measured:
[1] = tested on: biomarkers for myocardial infarction risk; details: clinical trial; cited from earlier work
[2] = molecular target: T1, recombinant human FLAP protein (Homo sapiens, UniProt P20292); assay: FLAP binding assay (Scintillation Proximity Assay, displacement of [125I]L-691,831); details: read-out: FLAP SPA IC50
T1 construct: made in house; host or cells: Sf9 insect cells (100,000xg membrane fraction used)
T1 sequence (P20292 1-161): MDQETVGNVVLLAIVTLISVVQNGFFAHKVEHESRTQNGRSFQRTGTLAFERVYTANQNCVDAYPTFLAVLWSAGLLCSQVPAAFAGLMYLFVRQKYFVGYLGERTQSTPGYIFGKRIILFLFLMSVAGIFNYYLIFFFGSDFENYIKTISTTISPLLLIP
Outline: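 Scintillation proximity displacement of [125I]L-691,831 (0.08 nM) from membranes of sf9 cells expressing recombinant human FLAP (5 μg/well) on WGA SPA beads, pH 7.5 Tris buffer. Plates shaken 2 h before counting. Non-specific binding defined with 10 μM unlabelled L-691,831.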

[3] = tested on: synthesis of LTB4 in human whole blood; assay: human whole blood LTB4 production inhibition assay; type: cell-based; details: calcimycin stimulated, read-out: hWB LTB4 IC50
Outline: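 Heparinized human whole blood preincubated with compound 15 min at 37 °C, then stimulated with calcimycin (20 μM final) for 30 min at 37 °C. Plasma LTB4 measured after low-speed centrifugation by antibody-based homogeneous time-resolved fluorescence.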

human glomerulonephritis = details: clinical trial; cited from earlier work
[4] = tested on: apoE/LDL-R double knockout mice; details: oral dosing, high-fat diet from 2 months of age to 6 months; cited from earlier work
ApoE−/−xCD4dnTβRII mice = details: infusion, treated for four weeks; cited from earlier work

Structure (SMILES) | IC50 [2] [nM] | IC50 [3] [nM] | further results
O=C(O)[C@@H](c1ccc(OCc2ccc3ccccc3n2)cc1)C1CCCC1 [DG-031] | – | – | effect on biomarkers for myocardial infarction risk [1]: dose-dependent suppression of several biomarkers
CC(C)(O)Cn1cc(-c2nc([C@@](C)(c3ccc(-c4cnc(N)c(C#N)n4)nc3)C3CC3)no2)cn1 [Example 164, 3-Amino-6-[5-((R)-1-cyclopropyl-1-{5-[1-(2-hydroxy-2-methyl-propyl)-1H-pyrazol-4-yl]-[1,2,4]oxadiazol-3-yl}-ethyl)-pyridin-2-yl]-pyrazine-2-carbonitrile] | 40 | 97 | –
CNc1ncc(-c2ccc([C@](C)(c3noc(-c4cnn(CC(C)(C)O)c4)n3)C3CC3)cn2)cn1 [Example 165, 1-[4-(3-{(R)-1-Cyclopropyl-1-[6-(2-methylamino-pyrimidin-5-yl)-pyridin-3-yl]-ethyl}-[1,2,4]oxadiazol-5-yl)-pyrazol-1-yl]-2-methyl-propan-2-ol] | 56 | 82 | –
Cc1nc(N)cnc1-c1ccc([C@](C)(c2noc(-c3cnn(CC(C)(C)O)c3)n2)C2CC2)cn1 [Example 166, 1-[4-(3-{(R)-1-[6-(5-Amino-3-methyl-pyrazin-2-yl)-pyridin-3-yl]-1-cyclopropyl-ethyl}-[1,2,4]oxadiazol-5-yl)-pyrazol-1-yl]-2-methyl-propan-2-ol] | 41 | 57 | –
CC(C)(O)Cn1cc(-c2nc([C@@](C)(c3ccc(-c4cnc(N)c(F)c4)nc3)C3CC3)no2)cn1 [Example 177, 1-(4-{3-[(R)-1-(6′-Amino-5′-fluoro-[2,3′]bipyridinyl-5-yl)-1-cyclopropyl-ethyl]-[1,2,4]oxadiazol-5-yl}-pyrazol-1-yl)-2-methyl-propan-2-ol] | 65 | 256 | –
CC(C)(O)Cn1cc(-c2nc([C@](C)(c3ccc(-c4cnc(N)c(F)c4)nc3)C3CC3)no2)cn1 [Example 178, 1-(4-{3-[(S)-1-(6′-Amino-5′-fluoro-[2,3′]bipyridinyl-5-yl)-1-cyclopropyl-ethyl]-[1,2,4]oxadiazol-5-yl}-pyrazol-1-yl)-2-methyl-propan-2-ol] | 2000 | 2350 | –
Cc1nc(N)ncc1-c1ccc(C(C)(c2noc(-c3cnn(CC(C)(C)O)c3)n2)C2CC2)cn1 (stereo not drawn) [Example 179, 1-[4-(3-{1-[6-(2-Amino-4-methyl-pyrimidin-5-yl)-pyridin-3-yl]-1-cyclopropyl-ethyl}-[1,2,4]oxadiazol-5-yl)-pyrazol-1-yl]-2-methyl-propan-2-ol] | 450 | 483 | –
Cc1nc(N)ncc1-c1ccc(C(C)(c2noc(-c3cnn(C)c3)n2)C2CC2)cn1 (stereo not drawn) [Example 180, 5-(5-{1-Cyclopropyl-1-[5-(1-methyl-1H-pyrazol-4-yl)-[1,2,4]oxadiazol-3-yl]-ethyl}-pyridin-2-yl)-4-methyl-pyrimidin-2-ylamine] | 190 | 309 | –
Cn1cc(-c2nc(C(C)(c3ccc(-c4cnc(N)cn4)nc3)C3CC3)no2)cn1 (stereo not drawn) [Example 181, 5-(5-{1-Cyclopropyl-1-[5-(1-methyl-1H-pyrazol-4-yl)-[1,2,4]oxadiazol-3-yl]-ethyl}-pyridin-2-yl)-pyrazin-2-ylamine] | 34 | 65 | –
CC(C)(C)Sc1c(CC(C)(C)C(=O)O)n(Cc2ccc(Cl)cc2)c2ccc(OCc3ccc4ccccc4n3)cc12 [MK-591] | – | – | effect on proteinuria (human glomerulonephritis): reduce proteinuria
CC(C)c1ccc2c(c1)c(SC(C)(C)C)c(CC(C)(C)C(=O)O)n2Cc1ccc(Cl)cc1 [MK-886] | – | – | decrease in plaque coverage in the aorta [4]: 56%; decrease in plaque coverage in the aortic root [4]: 43%; decrease in plaque area in the aortic root (ApoE−/−xCD4dnTβRII mice): ~40%

Source: US8580825B2, “Oxadiazole inhibitors of leukotriene production” (Boehringer Ingelheim International GmbH, priority 2010, dated 2013)
